This note sets out measurements from patent US12398120B2, “Substituted hydantoinamides as ADAMTS7 antagonists” (BAYER AKTIENGESELLSCHAFT, priority 2019, dated 2025).

In general, IC50 refers to the point on the concentration scale where inhibition reaches its midpoint. Read a high IC50 as weaker potency in that assay.

This test deals with ADAMTS4 (Homo sapiens (Human), UniProt O75173). In words: Selectivity assay for ADAMTS-7 modulators: ADAMTS4 (FRET substrate). It is filed as biochemical. The settings on record: ADAMTS4 (R&D 4307-AD) 50 nM, substrate Dabcyl-EEVKAKVQPY-Glu(Edans)-NH2 1 μM, 120 min, 32° C. The procedure: 1 μl test compound solution (dissolved in DMSO, at the corresponding concentration) or pure DMSO as a control was added per well. The enzymatic reaction was initiated by addition of 25 μl of the respective concentration of the respective FRET substrate (see table 2 below) in reaction buffer.
Sequence of ADAMTS4 (O75173 213-685): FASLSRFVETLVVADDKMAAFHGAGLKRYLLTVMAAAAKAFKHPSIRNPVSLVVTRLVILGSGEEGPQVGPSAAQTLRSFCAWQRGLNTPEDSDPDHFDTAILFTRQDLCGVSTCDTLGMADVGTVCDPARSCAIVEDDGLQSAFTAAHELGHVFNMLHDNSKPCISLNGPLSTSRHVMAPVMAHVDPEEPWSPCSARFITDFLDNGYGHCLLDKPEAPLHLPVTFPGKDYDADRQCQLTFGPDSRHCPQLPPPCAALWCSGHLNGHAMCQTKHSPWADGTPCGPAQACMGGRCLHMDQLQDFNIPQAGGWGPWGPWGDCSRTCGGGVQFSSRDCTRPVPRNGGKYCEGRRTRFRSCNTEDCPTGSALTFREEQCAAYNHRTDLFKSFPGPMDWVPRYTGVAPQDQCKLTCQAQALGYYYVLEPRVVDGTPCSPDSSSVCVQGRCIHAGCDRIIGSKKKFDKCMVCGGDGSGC
The increase of fluorescence intensity was measured in appropriate fluorescence plate reader (e.g. TECAN Ultra) using the respective wavelengths for excitation and emission. IC50 values were calculated from percentage of inhibition of enzyme activity as a function of test compound concentration.
Take `O=C1NC(=O)C(CNC(=O)c2ccccc2-c2ccc(Cl)cc2)(c2ccnn2C(F)F)N1` (racemic) [Example 258, Rac-4′-Chloro-N-({4-[1-(Difluoromethyl)-1H-Pyrazol-5-Yl]-2,5-Dioxoimidazolidin-4-Yl}Methyl)[Biphenyl]-2-Carboxamide]: the IC50 stood at 12 µM. Take `Cc1ncsc1C1(CNC(=O)c2cc(F)ccc2-c2ccc(C(F)(F)F)cc2)NC(=O)NC1=O` (single isomer, unassigned; ent-4) [Example 11, Ent-4-Fluoro-N-{[4-(4-Methyl-1,3-Thiazol-5-Yl)-2,5-Dioxoimidazolidin-4-Yl]Methyl}-4′-(Trifluoromethyl)[Biphenyl]-2-Carboxamide]: the IC50 was determined as 5.9 µM. `Cc1cnoc1C1(CNC(=O)c2ccccc2-c2ccc(C(F)(F)F)nc2)NC(=O)NC1=O` (racemic) [Example 77, Rac-N-{[4-(4-Methyl-1,2-Oxazol-5-Yl)-2,5-Dioxoimidazolidin-4-Yl]Methyl}-2-[6-(Trifluoromethyl)Pyridin-3-Yl]Benzamide] showed an IC50 of 40 µM. `CC(C)C1(CNC(=O)c2ccc(F)cc2-c2ccc(C(F)(F)F)cc2)NC(=O)NC1=O` (single isomer, unassigned; ent-5) [Example 207, Ent-5-Fluoro-N-[(4-Isopropyl-2,5-Dioxoimidazolidin-4-Yl)Methyl]-4′-(Trifluoromethyl)[Biphenyl]-2-Carboxamide] displayed an IC50 of more than 50 µM. The molecule `Cn1nccc1C1(CNC(=O)c2cccc(Cl)c2-c2ccc(C(F)(F)F)cc2)NC(=O)NC1=O` (single isomer, unassigned; ent-6) [Example 310, Ent-6-Chloro-N-{[4-(1-Methyl-1H-Pyrazol-5-Yl)-2,5-Dioxoimidazolidin-4-Yl]Methyl}-4′-(Trifluoromethyl)[Biphenyl]-2-Carboxamide] came in with an IC50 of 1.9 µM. Under `Cc1scnc1C1(CNC(=O)c2cc(Cl)ccc2-c2ccc(C(F)(F)F)cc2)NC(=O)NC1=O` (single isomer, unassigned; ent-4) [Example 18, Ent-4-Chloro-N-{[4-(5-Methyl-1,3-Thiazol-4-Yl)-2,5-Dioxoimidazolidin-4-Yl]Methyl}-4′-(Trifluoromethyl)[Biphenyl]-2-Carboxamide] stands 41 µM. `CC(C)(C)C1(CNC(=O)c2ccccc2-c2ccc(C(F)(F)F)cc2)NC(=O)NC1=O` (stereo not drawn) [Example 71, Ent-N-[(4-Tert-Butyl-2,5-Dioxoimidazolidin-4-Yl)Methyl]-4′-(Trifluoromethyl)[Biphenyl]-2-Carboxamide] gave an IC50 of 16.3 µM.

In turn, `Cn1ccnc1C1(CNC(=O)c2ccc(F)cc2-c2ccc(C3CC3(F)F)cc2)NC(=O)NC1=O` (stereo not shown) [Example 141, 4′-(2,2-Difluorocyclopropyl)-5-Fluoro-N-{[4-(1-Methyl-1H-Imidazol-2-Yl)-2,5-Dioxoimidazolidin-4-Yl]Methyl}[1,1′-Biphenyl]-2-Carboxamide] gave an IC50 of 3.6 µM. With `Cn1ccnc1C1(CNC(=O)c2cc(F)ccc2-c2ccc(C(F)(F)F)cc2)NC(=O)NC1=O` (single isomer, unassigned; ent-4) [Example 149, Ent-4-Fluoro-N-{[4-(1-Methyl-1H-Imidazol-2-Yl)-2,5-Dioxoimidazolidin-4-Yl]Methyl}-4′-(Trifluoromethyl)[Biphenyl]-2-Carboxamide] the figure was 1.15 µM; with `Cn1nccc1C1(CNC(=O)c2ccccc2-c2ccc(C(F)(F)F)nc2)NC(=O)NC1=O` (stereo not drawn) [Example 190, Ent-N-{[4-(1-Methyl-1H-Pyrazol-5-Yl)-2,5-Dioxoimidazolidin-4-Yl]Methyl}-2-[6-(Trifluoromethyl)Pyridin-3-Yl]Benzamide], 12 µM. The molecule `Cc1conc1C1(CNC(=O)c2ccccc2-c2ccc(C(F)(F)F)cc2)NC(=O)NC1=O` (stereo not drawn) [Example 69, Ent-N-{[4-(4-Methyl-1,2-Oxazol-3-Yl)-2,5-Dioxoimidazolidin-4-Yl]Methyl}-4′-(Trifluoromethyl)[Biphenyl]-2-Carboxamide] had an IC50 of 4.9 µM. This IC50 lies about 2.4-fold lower than the previous one. Regarding `O=C1NC(=O)C(CNC(=O)c2ccccc2-c2ccc(C(F)(F)F)cc2)(c2ncccc2C(F)(F)F)N1` (stereo not drawn) [Example 244, Ent-N-({2,5-Dioxo-4-[3-(Trifluoromethyl)Pyridin-2-Yl]Imidazolidin-4-Yl}Methyl)-4′-(Trifluoromethyl)[Biphenyl]-2-Carboxamide], the IC50 amounted to 10 µM. `Cc1scnc1C1(CNC(=O)c2ccc(F)cc2-c2ccc(Cl)cc2)NC(=O)NC1=O` (single isomer, unassigned; ent-4) [Example 170, Ent-4′-Chloro-5-Fluoro-N-{[4-(5-Methyl-1,3-Thiazol-4-Yl)-2,5-Dioxoimidazolidin-4-Yl]Methyl}[Biphenyl]-2-Carboxamide] returned an IC50 of 4.9 µM. Against the preceding molecule, the IC50 is about 2-fold lower. With `O=C1NC(=O)C(CNC(=O)c2ccccc2-c2ccc(C(F)(F)F)cc2)(c2ccnn2CC(F)(F)F)N1` (racemic) [Example 6, Rac-N-({2,5-Dioxo-4-[1-(2,2,2-Trifluoroethyl)-1H-Pyrazol-5-Yl]Imidazolidin-4-Yl}Methyl)-4′-(Trifluoromethyl)[Biphenyl]-2-Carboxamide], the IC50 worked out at 6.2 µM. With `Cc1ccc(C(=O)NCC2(c3scnc3C)NC(=O)NC2=O)c(-c2ccc(C(F)(F)F)cc2)c1` (single isomer, unassigned; ent-5) [Example 8, Ent-5-Methyl-N-{[4-(4-Methyl-1,3-Thiazol-5-Yl)-2,5-Dioxoimidazolidin-4-Yl]Methyl}-4′-(Trifluoromethyl)[Biphenyl]-2-Carboxamide] the figure was 3.8 µM; with `Cc1ccc(-c2ccccc2C(=O)NC[C@@]2(C3CC3)NC(=O)NC2=O)cc1Cl` [Example 225, 3′-Chloro-N-{[(4R)-4-Cyclopropyl-2,5-Dioxoimidazolidin-4-Yl]Methyl}-4′-Methyl[1,1′-Biphenyl]-2-Carboxamide], 21 µM; with `Cn1nccc1C1(CNC(=O)c2ccccc2-c2ccc(C(F)(F)F)cc2)NC(=O)NC1=O` (stereo not drawn) [Example 185, Ent-N-{[4-(1-Methyl-1H-Pyrazol-5-Yl)-2,5-Dioxoimidazolidin-4-Yl]Methyl}-4′-(Trifluoromethyl)[Biphenyl]-2-Carboxamide], 16.5 µM. The molecule `CC1(CNC(=O)c2ccccc2-c2ccc(C(F)(F)F)cc2)NC(=O)NC1=O` (stereo not drawn) [Example 96, Ent-N-[(4-Methyl-2,5-Dioxoimidazolidin-4-Yl)Methyl]-4′-(Trifluoromethyl)[Biphenyl]-2-Carboxamide] returned an IC50 of 46 µM. With `O=C1NC(=O)C(CNC(=O)c2ccccc2-c2ccc(C(F)(F)F)cc2)(C2(F)CC2)N1` (stereo not drawn) [Example 255, Ent-N-{[4-(1-Fluorocyclopropyl)-2,5-Dioxoimidazolidin-4-Yl]Methyl}-4′-(Trifluoromethyl)[Biphenyl]-2-Carboxamide] the figure was 10 µM; with `Cn1ccnc1C1(CNC(=O)c2ccccc2-c2ccc(C(F)(F)F)cc2)NC(=O)NC1=O` (stereo not drawn) [Example 148, Ent-N-{[4-(1-Methyl-1H-Imidazol-2-Yl)-2,5-Dioxoimidazolidin-4-Yl]Methyl}-4′-(Trifluoromethyl)[Biphenyl]-2-Carboxamide], 1.84 µM; with `Cc1scnc1C1(CNC(=O)c2ccccc2-c2ccc(C(F)(F)F)nc2)NC(=O)NC1=O` (stereo not drawn) [Example 173, Ent-N-{[4-(5-Methyl-1,3-Thiazol-4-Yl)-2,5-Dioxoimidazolidin-4-Yl]Methyl}-2-[6-(Trifluoromethyl)Pyridin-3-Yl]Benzamide], 7.9 µM.

Molecule `O=C1NC(=O)C(CNC(=O)c2ccccc2-c2ccc(C(F)(F)F)nc2)(c2ncsc2C2CC2)N1` (stereo not drawn) [Example 274, Ent-N-{[4-(5-Cyclopropyl-1,3-Thiazol-4-Yl)-2,5-Dioxoimidazolidin-4-Yl]Methyl}-2-[6-(Trifluoromethyl)Pyridin-3-Yl]Benzamide] yielded an IC50 of 3.8 µM. With `O=C1NC(=O)C(CNC(=O)c2ccc(F)cc2-c2ccc(C(F)(F)F)cc2)(c2ncsc2C(F)(F)F)N1` (stereo not drawn) [Example 268, Ent-N-({2,5-Dioxo-4-[5-(Trifluoromethyl)-1,3-Thiazol-4-Yl]Imidazolidin-4-Yl}Methyl)-5-Fluoro-4′-(Trifluoromethyl)[Biphenyl]-2-Carboxamide] the figure was 27 µM; with `O=C1NC(=O)[C@](CNC(=O)c2ccccc2-c2ccc(C3CCC3)cc2)(C2CC2)N1` [Example 112, 4′-Cyclobutyl-N-{[(4R)-4-Cyclopropyl-2,5-Dioxoimidazolidin-4-Yl]Methyl}[Biphenyl]-2-Carboxamide], 2.2 µM; with `Cn1cncc1C1(CNC(=O)c2ccccc2-c2ccc(C(F)(F)F)cc2)NC(=O)NC1=O` (racemic) [Example 283, Rac-N-{[4-(1-Methyl-1H-Imidazol-5-Yl)-2,5-Dioxoimidazolidin-4-Yl]Methyl}-4′-(Trifluoromethyl)[Biphenyl]-2-Carboxamide], 6.3 µM.

On to `O=C1NC(=O)[C@](CNC(=O)c2cc(F)ccc2-c2ccc(Cl)cc2)(C2CC2)N1` [Example 233, 4′-Chloro-N-{[(4R)-4-Cyclopropyl-2,5-Dioxoimidazolidin-4-Yl]Methyl}-4-Fluoro[1,1′-Biphenyl]-2-Carboxamide], for which the IC50 was determined as 6.5 µM. Under `O=C1NC(=O)[C@](CNC(=O)c2c(F)cccc2-c2ccc(C(F)(F)F)cc2)(C2CC2)N1` [Example 230, N-{[(4R)-4-Cyclopropyl-2,5-Dioxoimidazolidin-4-Yl]Methyl}-3-Fluoro-4′-(Trifluoromethyl)[1,1′-Biphenyl]-2-Carboxamide] stands 33 µM; under `O=C1NC(=O)C(CNC(=O)c2cc(F)ccc2-c2ccc(C(F)(F)F)cc2)(c2ncsc2C(F)(F)F)N1` (stereo not drawn) [Example 266, Ent-N-({2,5-Dioxo-4-[5-(Trifluoromethyl)-1,3-Thiazol-4-Yl]Imidazolidin-4-Yl}Methyl)-4-Fluoro-4′-(Trifluoromethyl)[Biphenyl]-2-Carboxamide], 10 µM.
